Data from patent publication US11208405B2, “Pyrrole derivatives as PLK1 inhibitors” (SENTINEL ONCOLOGY LIMITED, priority 2017, dated 2021).
Counter-ions that a name gives are not always drawn.

Tests used:
HeLa cells = assay: Arresting cells in mitosis (Mitotic Index, phosphorylated Histone H3 immunofluorescence); type: cell-based; details: Homo sapiens, HeLa; separate experiment; read-out: EC50 in the mitotic arrest assay
Method: Assay to Measure the Effects of Compounds of the Invention on Arresting Cells in Mitosis
Inhibiting the ability of PLK1 to bind to its phosphopeptide binding partners through the PBD causes cells to arrest in mitosis. Experimentally, this is measured by assessing the number of cells which are in mitosis at a certain time after treatment with a PLK1-PBD inhibitor by immunofluorescent detection of phosphorylated Histone H3 (pH3), a marker which is only present in mitotic cells. PLK1-PBD inhibitors are expected to cause a dose-dependent increase in pH3-positive cells, which is reported as Mitotic Index (MI)—the percentage of cells which, at a given time, are positive for this mitotic mark. The following protocol has been used to measure MI: • 1. Plate HeLa cells at 10,000/well in 100 μL/well in clear flat-bottom 96-well plates and incubate overnight. • 2. Immediately prior to treatment, dilute compounds in medium in a 96-well round-bottom plate. Make up all compounds at 5 times final desired concentration on cells, and serially dilute 1:2 across the plate ensuring that there is 100 μL of each concentration (start with 200 μl of the top concentration on the left of the plate). […] Treat cells by adding 25 μL from the compound dilution plate to triplicate wells. • 4. Incubate cells with compound for 24 hours. • 5. After 24 hours, fixation and staining is carried out as follows: • 6. Dilute 37% formaldehyde in PBS to give a 12.95% solution by adding 3.5 mL formaldehyde to 6.5 mL of PBS. • 7. Add 50 μL of formaldehyde fixation solution directly to each well of cells (which already contain 125 μL medium). • 8. Incubate at room temp for 10 minutes. • 9. Remove fixative and add 100 μL/well PBS+0.1% Triton X-100 for 10 minutes. • 10. Aspirate and add 100 μL/well PBS+1% BSA. • 11. Aspirate and add 50 μL/well of primary antibody (anti-PH3 [1:2000]/anti-MPM2 [1:1000]) diluted in PBS+1% BSA. Incubate for 1 hour. • 12. Wash×2 with 100 μL/well PBS+1% BSA. • 13. Add 50 μL/well of secondary antibody plus Hoechst stain (anti-rabbit Alexafluor 488 [1:500]; anti-mouse Alexafluor 546 [1:500]+Hoechst 33342 [1:2500 final concentration=4 μg/mL])diluted in PBS+1% BSA. Incubate for 1 hour. • 14. Wash twice with 100 μL/well PBS+1% BSA. • 15. Aspirate and add 100 μL/well PBS. Plates can be stored at 4° C. in PBS for several weeks before scanning on the Cellomics Arrayscan. […] Scan on Cellomics using Target Activation Bioapplication. • 17. MI data emerging from the Cellomic Bioapplication can be used to plot MI versus compound concentration, and subsequently used to generate an EC50 value for each compound using an appropriate graphing/curve-fitting package such as GraphPad Prism.

[1] = Determination of oral bioavailability (plasma pharmacokinetics i.v. and p.o.); type: in vivo, Male CD-1 mice; details: mice
Method: Determination of Oral Bioavailability The oral bioavailability of the compound of Example 33 was determined in mice and compared with the bioavailability following intravenous injection using the following protocol. […] N=3 mice per time point with 15 ul plasma per aliquot.

cytochrome P450 1A = assay: Cytochrome P450 inhibition, 1A; type: in vitro ADME
cytochrome P450 2D6 = cytochrome P450 2D6 (Homo sapiens, UniProt P10635); assay: Cytochrome P450 inhibition, 2D6; type: in vitro ADME
cytochrome P450 3A4 = cytochrome P450 3A4 (Homo sapiens, UniProt P08684); assay: Cytochrome P450 inhibition, 3A4; type: in vitro ADME
[2] = system: glioblastoma cell line 909745; assay: Glioblastoma cancer cell viability, cell line 909745; type: cell-based
Method: Assay to Measure the Effects of Compounds of the Invention on Glioblastoma Cancer Cell Viability
The compound of Example 33 was tested for inhibitory activity against the glioblastoma cell lines in Table 7 below.

BUB1 = target: T1, BUB1 (Homo sapiens, UniProt O43683); assay: Kinase selectivity assay (DiscoverX KinomeScreen), BUB1; type: binding; details: BUB1, 5 μM; read-out: % Control
T1 construct: purchased DiscoverX
T1 sequence (O43683 whole entry): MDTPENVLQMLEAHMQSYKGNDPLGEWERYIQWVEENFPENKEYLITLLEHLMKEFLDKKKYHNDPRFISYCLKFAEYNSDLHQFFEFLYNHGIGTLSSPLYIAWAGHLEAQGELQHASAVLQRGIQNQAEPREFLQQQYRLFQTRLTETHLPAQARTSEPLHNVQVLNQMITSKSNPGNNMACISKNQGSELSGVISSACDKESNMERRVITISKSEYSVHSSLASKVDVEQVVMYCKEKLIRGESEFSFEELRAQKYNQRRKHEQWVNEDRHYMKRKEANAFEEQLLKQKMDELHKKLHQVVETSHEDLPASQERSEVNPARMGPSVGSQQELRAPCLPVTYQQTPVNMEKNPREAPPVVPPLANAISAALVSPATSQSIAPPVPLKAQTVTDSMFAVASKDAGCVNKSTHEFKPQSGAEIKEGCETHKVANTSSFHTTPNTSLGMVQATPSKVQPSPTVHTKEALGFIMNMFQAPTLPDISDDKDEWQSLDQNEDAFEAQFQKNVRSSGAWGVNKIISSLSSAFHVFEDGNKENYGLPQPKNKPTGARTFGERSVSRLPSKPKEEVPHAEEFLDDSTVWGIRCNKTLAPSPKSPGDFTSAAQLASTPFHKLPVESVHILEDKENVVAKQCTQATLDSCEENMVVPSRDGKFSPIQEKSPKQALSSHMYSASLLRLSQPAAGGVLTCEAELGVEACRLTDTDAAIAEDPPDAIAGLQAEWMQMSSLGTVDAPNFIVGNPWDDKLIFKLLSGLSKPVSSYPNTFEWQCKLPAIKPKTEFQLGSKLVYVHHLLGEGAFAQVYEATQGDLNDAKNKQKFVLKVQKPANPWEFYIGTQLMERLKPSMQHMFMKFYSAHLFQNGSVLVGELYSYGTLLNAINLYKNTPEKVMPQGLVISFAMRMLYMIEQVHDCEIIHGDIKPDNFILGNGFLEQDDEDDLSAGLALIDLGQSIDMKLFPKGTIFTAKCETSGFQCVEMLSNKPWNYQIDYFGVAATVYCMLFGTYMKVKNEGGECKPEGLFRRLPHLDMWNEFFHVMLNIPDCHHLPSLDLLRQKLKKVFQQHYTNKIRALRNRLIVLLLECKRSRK
Method: (§1) The compound of Example 33 was tested for off-target activity against a panel of fifty five kinases bearing functional or structural similarity to PLK1 at a concentration of 5 μM using the DiscoverX KinomeScreen assay.

IKBKE = target: T2, IKBKE (Homo sapiens, UniProt Q14164); assay: Kinase selectivity assay (DiscoverX KinomeScreen), IKBKE; type: binding; details: read-out: % Control
T2 construct: purchased DiscoverX
Method: as §1

NEK10 = target: T3, NEK10 (Homo sapiens, UniProt Q6ZWH5); assay: Kinase selectivity assay (DiscoverX KinomeScreen), NEK10; type: binding; details: NEK10, 5 μM; read-out: % Control
T3 construct: purchased DiscoverX
Method: as §1

NEK2 = target: T4, NEK2 (Homo sapiens, UniProt P51955); assay: Kinase selectivity assay (DiscoverX KinomeScreen), NEK2; type: binding; details: NEK2, 5 μM; read-out: % Control
T4 construct: purchased DiscoverX
Method: as §1

NEK3 = target: T5, NEK3 (Homo sapiens, UniProt P51956); assay: Kinase selectivity assay (DiscoverX KinomeScreen), NEK3; type: binding; details: NEK3, 5 μM; read-out: % Control
T5 construct: purchased DiscoverX
T5 sequence (P51956 whole entry): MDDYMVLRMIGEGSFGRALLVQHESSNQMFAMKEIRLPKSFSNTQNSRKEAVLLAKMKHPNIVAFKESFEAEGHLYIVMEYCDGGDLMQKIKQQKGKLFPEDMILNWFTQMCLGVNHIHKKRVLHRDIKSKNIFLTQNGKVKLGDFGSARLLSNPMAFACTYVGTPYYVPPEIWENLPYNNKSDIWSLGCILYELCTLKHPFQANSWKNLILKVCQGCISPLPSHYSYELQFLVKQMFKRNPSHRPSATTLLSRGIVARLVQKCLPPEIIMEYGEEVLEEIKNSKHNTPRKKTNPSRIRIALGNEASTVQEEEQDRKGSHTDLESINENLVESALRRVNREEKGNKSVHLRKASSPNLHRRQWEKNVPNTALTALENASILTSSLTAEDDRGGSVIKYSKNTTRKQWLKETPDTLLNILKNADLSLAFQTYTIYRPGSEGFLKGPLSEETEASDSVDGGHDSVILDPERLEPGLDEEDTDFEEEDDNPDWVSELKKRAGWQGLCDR
Method: as §1

NEK5 = target: T6, NEK5 (Homo sapiens, UniProt Q6P3R8); assay: Kinase selectivity assay (DiscoverX KinomeScreen), NEK5; type: binding; details: NEK5, 5 μM; read-out: % Control
T6 construct: purchased DiscoverX
T6 sequence (Q6P3R8 whole entry): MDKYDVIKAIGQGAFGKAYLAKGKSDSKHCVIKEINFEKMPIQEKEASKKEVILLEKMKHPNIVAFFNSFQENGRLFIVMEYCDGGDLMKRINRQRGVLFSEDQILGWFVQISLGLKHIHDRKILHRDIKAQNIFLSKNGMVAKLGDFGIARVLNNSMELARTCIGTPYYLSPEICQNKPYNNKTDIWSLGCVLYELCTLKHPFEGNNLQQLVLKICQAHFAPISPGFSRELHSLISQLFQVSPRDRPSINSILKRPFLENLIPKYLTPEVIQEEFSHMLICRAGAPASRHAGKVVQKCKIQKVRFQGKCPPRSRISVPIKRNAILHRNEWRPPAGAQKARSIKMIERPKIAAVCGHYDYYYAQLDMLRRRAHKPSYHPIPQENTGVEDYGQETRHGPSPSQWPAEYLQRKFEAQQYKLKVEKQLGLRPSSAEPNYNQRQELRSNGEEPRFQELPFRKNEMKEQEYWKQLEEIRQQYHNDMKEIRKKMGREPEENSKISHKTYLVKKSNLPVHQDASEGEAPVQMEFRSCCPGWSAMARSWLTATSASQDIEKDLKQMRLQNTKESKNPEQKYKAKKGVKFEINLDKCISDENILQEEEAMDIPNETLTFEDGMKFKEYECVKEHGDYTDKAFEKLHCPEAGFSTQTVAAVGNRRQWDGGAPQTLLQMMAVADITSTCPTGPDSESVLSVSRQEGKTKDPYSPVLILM
Method: as §1

NEK6 = target: T7, NEK6 (Homo sapiens, UniProt Q9HC98); assay: Kinase selectivity assay (DiscoverX KinomeScreen), NEK6; type: binding; details: NEK6, 5 μM; read-out: % Control
T7 construct: purchased DiscoverX
T7 sequence (Q9HC98 whole entry): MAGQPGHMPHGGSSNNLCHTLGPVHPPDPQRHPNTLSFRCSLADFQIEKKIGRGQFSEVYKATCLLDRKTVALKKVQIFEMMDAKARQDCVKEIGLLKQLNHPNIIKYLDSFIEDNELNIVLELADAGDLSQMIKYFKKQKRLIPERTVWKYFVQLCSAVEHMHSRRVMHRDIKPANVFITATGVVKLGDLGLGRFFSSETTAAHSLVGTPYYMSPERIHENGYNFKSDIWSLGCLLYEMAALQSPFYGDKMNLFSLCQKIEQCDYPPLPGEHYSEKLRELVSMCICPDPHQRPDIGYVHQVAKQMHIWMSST
Method: as §1

PLK2 = target: T8, PLK2 (Homo sapiens, UniProt Q9NYY3); assay: Kinase selectivity assay (DiscoverX KinomeScreen), PLK2; type: binding; details: PLK2, 5 μM; read-out: % Control
T8 construct: purchased DiscoverX
T8 sequence (Q9NYY3 whole entry): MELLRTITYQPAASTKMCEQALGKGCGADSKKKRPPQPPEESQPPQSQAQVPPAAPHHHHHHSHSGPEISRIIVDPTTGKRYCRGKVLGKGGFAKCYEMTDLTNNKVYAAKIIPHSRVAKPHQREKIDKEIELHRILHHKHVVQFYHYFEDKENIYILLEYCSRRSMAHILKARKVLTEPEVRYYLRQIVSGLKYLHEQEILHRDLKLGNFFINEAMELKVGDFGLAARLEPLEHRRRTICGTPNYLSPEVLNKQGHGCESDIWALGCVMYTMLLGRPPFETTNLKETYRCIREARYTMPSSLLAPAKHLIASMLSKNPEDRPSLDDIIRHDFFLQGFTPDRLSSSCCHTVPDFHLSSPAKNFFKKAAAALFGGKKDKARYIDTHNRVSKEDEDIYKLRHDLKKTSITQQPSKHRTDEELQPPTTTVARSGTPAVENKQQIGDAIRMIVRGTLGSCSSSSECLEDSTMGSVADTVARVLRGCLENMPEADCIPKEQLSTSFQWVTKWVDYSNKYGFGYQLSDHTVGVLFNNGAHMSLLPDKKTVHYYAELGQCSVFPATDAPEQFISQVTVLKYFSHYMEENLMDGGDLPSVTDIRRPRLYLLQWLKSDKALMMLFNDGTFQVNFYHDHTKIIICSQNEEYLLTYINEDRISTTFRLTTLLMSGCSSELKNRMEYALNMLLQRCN
Method: as §1

SgK110 = target: T9, SgK110 (Homo sapiens, UniProt P0C264); assay: Kinase selectivity assay (DiscoverX KinomeScreen), SgK110; type: binding; details: SgK110, 5 μM; read-out: % Control
T9 construct: purchased DiscoverX
T9 sequence (P0C264 whole entry): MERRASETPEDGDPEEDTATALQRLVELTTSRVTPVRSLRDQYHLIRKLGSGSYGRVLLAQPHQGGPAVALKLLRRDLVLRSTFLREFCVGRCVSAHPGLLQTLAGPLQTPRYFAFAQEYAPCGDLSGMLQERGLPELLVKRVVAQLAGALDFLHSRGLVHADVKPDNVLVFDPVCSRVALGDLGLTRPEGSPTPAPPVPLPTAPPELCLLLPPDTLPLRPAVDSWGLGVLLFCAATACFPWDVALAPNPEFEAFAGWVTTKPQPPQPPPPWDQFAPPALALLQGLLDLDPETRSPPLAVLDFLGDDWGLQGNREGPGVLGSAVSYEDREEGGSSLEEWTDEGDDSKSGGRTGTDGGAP
Method: as §1

STK16 = target: T10, STK16 (Homo sapiens, UniProt O75716); assay: Kinase selectivity assay (DiscoverX KinomeScreen), STK16; type: binding; details: STK16, 5 μM; read-out: % Control
T10 construct: purchased DiscoverX
T10 sequence (O75716 whole entry): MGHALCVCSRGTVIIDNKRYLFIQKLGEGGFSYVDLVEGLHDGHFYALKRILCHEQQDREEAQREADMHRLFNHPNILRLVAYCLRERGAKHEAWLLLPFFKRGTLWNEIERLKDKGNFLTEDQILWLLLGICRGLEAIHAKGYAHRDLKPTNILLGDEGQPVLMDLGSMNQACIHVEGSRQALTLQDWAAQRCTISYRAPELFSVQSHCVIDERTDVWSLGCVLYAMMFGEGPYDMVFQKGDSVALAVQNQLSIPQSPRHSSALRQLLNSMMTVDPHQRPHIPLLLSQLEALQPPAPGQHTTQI
Method: as §1

ULK2 = target: T11, ULK2 (Homo sapiens, UniProt Q8IYT8); assay: Kinase selectivity assay (DiscoverX KinomeScreen), ULK2; type: binding; details: ULK2, 5 μM; read-out: % Control
T11 construct: purchased DiscoverX
T11 sequence (Q8IYT8 whole entry): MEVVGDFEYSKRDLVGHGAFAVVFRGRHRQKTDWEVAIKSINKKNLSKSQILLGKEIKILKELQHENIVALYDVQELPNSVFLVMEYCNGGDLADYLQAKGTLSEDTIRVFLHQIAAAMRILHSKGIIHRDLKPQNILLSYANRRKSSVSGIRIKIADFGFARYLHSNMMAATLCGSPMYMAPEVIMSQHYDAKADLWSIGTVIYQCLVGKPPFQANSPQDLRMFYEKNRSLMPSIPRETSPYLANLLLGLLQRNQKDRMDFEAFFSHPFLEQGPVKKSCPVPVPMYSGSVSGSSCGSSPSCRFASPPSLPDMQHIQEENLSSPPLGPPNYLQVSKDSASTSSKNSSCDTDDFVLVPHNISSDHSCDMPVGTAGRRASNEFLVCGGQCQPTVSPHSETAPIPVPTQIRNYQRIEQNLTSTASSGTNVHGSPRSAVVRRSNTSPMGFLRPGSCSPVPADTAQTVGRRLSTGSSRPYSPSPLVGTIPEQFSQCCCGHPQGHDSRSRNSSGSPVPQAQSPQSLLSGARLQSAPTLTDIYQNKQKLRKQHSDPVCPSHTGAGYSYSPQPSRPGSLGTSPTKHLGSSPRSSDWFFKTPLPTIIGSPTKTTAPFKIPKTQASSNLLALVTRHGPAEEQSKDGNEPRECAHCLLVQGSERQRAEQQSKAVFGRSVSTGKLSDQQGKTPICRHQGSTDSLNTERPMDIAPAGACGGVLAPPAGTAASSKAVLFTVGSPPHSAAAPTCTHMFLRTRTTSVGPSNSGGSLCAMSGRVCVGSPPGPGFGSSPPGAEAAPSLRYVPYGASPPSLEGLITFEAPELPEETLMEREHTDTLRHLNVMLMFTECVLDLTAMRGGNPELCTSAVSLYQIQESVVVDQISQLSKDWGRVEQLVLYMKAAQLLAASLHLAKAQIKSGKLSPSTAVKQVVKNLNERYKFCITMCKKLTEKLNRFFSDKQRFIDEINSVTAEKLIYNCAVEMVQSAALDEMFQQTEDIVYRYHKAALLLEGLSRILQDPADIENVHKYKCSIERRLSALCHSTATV
Method: as §1

WNK4 = target: T12, WNK4 (Homo sapiens, UniProt Q96J92); assay: Kinase selectivity assay (DiscoverX KinomeScreen), WNK4; type: binding; details: WNK4, 5 μM; read-out: % Control
T12 construct: purchased DiscoverX
Method: as §1

[3] = male, CD-1, mouse, 2 mg/kg IV, plasma
[4] = male, CD-1, mouse, 10 mg/Kg PO, plasma

CN(C)CCNC(=O)c1ccc(-c2ccc(-c3ccc(Cl)cc3)n2-c2ccccc2C(F)(F)F)cc1 [Example 33, 4-[5-(4-chlorophenyl)-1-[2-(trifluoromethyl)phenyl]pyrrol-2-yl]-N-[2-(dimethylamino)ethyl]benzamide Hydrochloride]
EC50 (HeLa cells): 61 ± 10 nM | AUC(0-inf) [1, 3]: 2100 ng·h/mL | Cmax [1, 3]: 873 ng/mL | half-life ([1]; male, CD-1, mouse, 2 mg/kg IV, plasma, read-out: T½ (converted)): 780 min | Vd ([1]; male, CD-1, mouse, 2 mg/kg IV, plasma, read-out: Vss): 17 L/kg | AUC(0-inf) [1, 4]: 9800 ng·h/mL | Cmax [1, 4]: 415 ng/mL | CI ([1]; 2 mg/kg IV, plasma): 16 mL/min/kg | F ([1]; 10 mg/Kg PO versus 2 mg/kg IV): 93% | T½ ([1]; 10 mg/Kg PO, plasma): 15 h | Vz ([1]; 10 mg/Kg PO, plasma): 23 L/kg | cytochrome P450 inhibition 1A (cytochrome P450 1A): > 10 µM | cytochrome P450 inhibition 2D6 (cytochrome P450 2D6): > 10 µM | cytochrome P450 inhibition 3A4 (cytochrome P450 3A4): > 10 µM | IC50 [2]: 1370 nM | remaining activity at 5 µM (BUB1): 90% | remaining activity at 5 µM (IKBKE): 75% | remaining activity at 5 µM (NEK10): 94% | remaining activity at 5 µM (NEK2): 94% | remaining activity at 5 µM (NEK3): 74% | remaining activity at 5 µM (NEK5): 99% | remaining activity at 5 µM (NEK6): 99% | remaining activity at 5 µM (PLK2): 85% | remaining activity at 5 µM (SgK110): 100% | remaining activity at 5 µM (STK16): 92% | remaining activity at 5 µM (ULK2): 100% | remaining activity at 5 µM (WNK4): 91%
